Series [1] deals with HeLa. As to the kind of experiment: Induction of EGFP fused Htt Q145 mutant exon 1 (unknown origin) degradation expressed in human HeLa cells assessed as HSP70/CHIP recruitment based proteosome mediated mHtt exon 1-Q145 degradation at higher concentration measured after 24 hrs by Western blot analysis. Type of series: cell-based. A general note: Immunoblotting shows a protein as a band on a membrane.

Series [2] is described as follows: Efflux ratio of apparent permeability across basolateral to apical side over apical to basolateral side in human Caco-2 cells at 10 uM. Conditions: for efflux ratio at 10 µM: Caco-2. It is filed as ADME, cell-based. For orientation: Caco-2 cells form a polarised layer with tight junctions and transporters.
Series [3] is described as follows: Apparent permeability across apical to basolateral side in human Caco-2 cells at 10 uM. It is filed as ADME, cell-based. Conditions: for Papp A→B at 10 µM: Caco-2.
Series [4] in a line: Apparent permeability across basolateral to apical side in human Caco-2 cells at 10 uM. Conditions: for Papp B→A at 10 µM: Caco-2. Type of series: ADME, cell-based.
The test system of series [5] is HeLa. Kind of series: Induction of EGFP fused Htt Q145 mutant exon 1 (unknown origin) degradation expressed in human HeLa cells assessed as HSP70/CHIP recruitment based proteosome mediated mHtt exon 1-Q145 degradation at 10 uM measured after 24 hrs by Western blot analysis in the presence of bortezomib. Type of series: cell-based.
Series [6] deals with Huntingtin (Homo sapiens), P42858 [UNDEFINED MUTATION]. As to the kind of experiment: Induction of mutant Htt (unknown origin) degradation expressed in human fibroblasts cells assessed as HSP70/CHIP recruitment based proteosome mediated mHtt degradation by western blot analysis. Type of series: cell-based. Conditions: Fibroblast.
Sequence of Huntingtin (Homo sapiens), P42858 [UNDEFINED MUTATION] (P42858 whole entry, looked up, change not shown, the tested form may be a part): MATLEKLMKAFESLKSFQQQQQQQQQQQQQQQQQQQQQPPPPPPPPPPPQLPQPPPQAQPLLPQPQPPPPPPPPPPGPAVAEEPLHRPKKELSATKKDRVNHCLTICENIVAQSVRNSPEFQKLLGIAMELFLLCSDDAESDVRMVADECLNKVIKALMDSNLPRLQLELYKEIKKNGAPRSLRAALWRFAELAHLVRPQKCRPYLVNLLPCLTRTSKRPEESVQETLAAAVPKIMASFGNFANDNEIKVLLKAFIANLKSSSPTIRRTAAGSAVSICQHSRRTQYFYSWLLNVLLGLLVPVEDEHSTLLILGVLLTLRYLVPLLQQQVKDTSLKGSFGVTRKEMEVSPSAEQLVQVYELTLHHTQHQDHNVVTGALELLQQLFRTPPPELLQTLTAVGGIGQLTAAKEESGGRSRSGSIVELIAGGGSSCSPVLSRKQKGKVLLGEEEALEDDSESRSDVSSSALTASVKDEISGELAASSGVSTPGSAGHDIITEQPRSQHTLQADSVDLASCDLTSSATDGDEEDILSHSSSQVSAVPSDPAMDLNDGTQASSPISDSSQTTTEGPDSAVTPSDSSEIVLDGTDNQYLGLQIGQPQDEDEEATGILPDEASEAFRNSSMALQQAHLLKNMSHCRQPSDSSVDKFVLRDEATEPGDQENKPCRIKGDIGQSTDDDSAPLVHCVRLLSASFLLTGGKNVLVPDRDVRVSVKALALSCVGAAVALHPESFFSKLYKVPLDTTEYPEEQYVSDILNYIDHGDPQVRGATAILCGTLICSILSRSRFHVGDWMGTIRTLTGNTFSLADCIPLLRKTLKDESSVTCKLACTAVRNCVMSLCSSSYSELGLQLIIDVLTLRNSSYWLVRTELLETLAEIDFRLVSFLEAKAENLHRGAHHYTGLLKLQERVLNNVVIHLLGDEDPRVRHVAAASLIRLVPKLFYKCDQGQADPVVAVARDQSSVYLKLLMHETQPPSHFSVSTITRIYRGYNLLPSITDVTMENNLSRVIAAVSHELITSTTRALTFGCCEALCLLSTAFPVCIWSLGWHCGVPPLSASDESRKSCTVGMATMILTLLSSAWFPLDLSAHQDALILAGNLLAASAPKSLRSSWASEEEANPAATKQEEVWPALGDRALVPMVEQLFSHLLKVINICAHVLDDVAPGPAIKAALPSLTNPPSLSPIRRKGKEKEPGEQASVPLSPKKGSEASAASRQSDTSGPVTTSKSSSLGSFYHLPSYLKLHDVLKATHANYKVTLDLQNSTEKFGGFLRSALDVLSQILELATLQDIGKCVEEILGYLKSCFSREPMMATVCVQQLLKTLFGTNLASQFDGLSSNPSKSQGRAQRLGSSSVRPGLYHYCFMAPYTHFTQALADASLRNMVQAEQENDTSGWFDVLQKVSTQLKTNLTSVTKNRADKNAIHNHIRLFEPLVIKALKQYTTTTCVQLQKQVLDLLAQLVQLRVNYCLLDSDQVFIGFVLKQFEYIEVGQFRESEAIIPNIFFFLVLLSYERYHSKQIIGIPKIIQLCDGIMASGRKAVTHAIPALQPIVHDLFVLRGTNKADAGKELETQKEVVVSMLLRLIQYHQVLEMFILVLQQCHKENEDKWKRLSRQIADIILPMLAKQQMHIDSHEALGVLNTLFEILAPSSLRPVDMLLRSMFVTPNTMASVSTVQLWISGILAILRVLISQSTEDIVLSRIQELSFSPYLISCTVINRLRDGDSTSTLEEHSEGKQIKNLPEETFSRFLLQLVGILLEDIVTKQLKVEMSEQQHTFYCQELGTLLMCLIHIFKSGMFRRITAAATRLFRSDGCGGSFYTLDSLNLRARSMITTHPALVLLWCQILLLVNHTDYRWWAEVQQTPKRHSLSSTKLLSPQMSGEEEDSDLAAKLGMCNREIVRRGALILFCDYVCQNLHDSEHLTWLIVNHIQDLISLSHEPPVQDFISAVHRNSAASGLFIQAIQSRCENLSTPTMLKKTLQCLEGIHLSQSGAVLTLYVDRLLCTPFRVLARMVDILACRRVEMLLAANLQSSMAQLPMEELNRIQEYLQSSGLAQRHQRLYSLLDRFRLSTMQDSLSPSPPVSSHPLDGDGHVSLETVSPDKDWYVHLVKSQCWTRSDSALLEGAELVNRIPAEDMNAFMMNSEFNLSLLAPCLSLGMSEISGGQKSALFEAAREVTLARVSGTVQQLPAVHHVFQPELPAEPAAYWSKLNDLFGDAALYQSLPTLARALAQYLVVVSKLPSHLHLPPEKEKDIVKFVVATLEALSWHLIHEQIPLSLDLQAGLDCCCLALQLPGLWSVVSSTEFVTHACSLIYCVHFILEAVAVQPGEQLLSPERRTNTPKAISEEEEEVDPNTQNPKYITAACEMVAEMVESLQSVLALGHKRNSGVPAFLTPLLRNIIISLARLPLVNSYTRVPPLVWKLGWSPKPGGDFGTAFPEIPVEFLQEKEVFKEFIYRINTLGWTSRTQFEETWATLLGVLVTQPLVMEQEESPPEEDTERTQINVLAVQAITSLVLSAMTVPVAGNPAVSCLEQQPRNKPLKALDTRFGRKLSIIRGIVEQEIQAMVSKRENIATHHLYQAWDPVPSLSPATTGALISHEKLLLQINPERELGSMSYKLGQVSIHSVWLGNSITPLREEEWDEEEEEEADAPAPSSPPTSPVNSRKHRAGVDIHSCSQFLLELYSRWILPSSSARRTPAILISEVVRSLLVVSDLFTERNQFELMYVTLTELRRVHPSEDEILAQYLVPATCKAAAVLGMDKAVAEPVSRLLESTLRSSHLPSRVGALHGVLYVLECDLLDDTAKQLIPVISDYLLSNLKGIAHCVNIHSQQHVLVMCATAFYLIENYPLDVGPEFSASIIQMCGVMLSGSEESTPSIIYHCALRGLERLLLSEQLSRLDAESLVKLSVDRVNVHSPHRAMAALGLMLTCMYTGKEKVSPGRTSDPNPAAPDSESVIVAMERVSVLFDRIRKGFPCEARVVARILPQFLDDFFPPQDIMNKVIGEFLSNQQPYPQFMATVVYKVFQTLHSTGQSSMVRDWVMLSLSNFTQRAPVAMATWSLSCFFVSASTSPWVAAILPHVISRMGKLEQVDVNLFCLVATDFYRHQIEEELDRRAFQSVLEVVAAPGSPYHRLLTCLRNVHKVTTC
For series [7], the system named is HeLa. As to the kind of experiment: Induction of EGFP fused Htt Q145 mutant exon 1 (unknown origin) degradation expressed in human HeLa cells assessed as HSP70/CHIP recruitment based proteosome mediated mHtt exon 1-Q145 degradation at 5 uM measured after 24 hrs by Western blot analysis. Type of series: cell-based.
Series [8] has as its system HeLa. As to the kind of experiment: Induction of EGFP fused Htt Q145 mutant exon 1 (unknown origin) degradation expressed in human HeLa cells assessed as HSP70/CHIP recruitment based proteosome mediated mHtt exon 1-Q145 degradation at 10 uM measured after 24 to 48 hrs by Western blot analysis. Type of series: cell-based. Conditions: time 24-48 hrs.
The test system of series [9] is HeLa. As to the kind of experiment: Induction of EGFP fused Htt Q145 mutant exon 1 (unknown origin) degradation expressed in human HeLa cells assessed as HSP70/CHIP recruitment based proteosome mediated mHtt exon 1-Q145 degradation at 10 uM preincubated with geldanamycin for 6 hrs and measured after 24 hrs by Western blot analysis. It is filed as cell-based.
In series [10] the test system is HeLa. As to the kind of experiment: Induction of EGFP fused Htt Q145 mutant exon 1 (unknown origin) degradation expressed in human HeLa cells assessed as HSP70/CHIP recruitment based proteosome mediated decrease in aggregate foci at 10 uM incubated for 24 hrs by Hoechst33342 staining based fluorescence microscopic analysis. It is filed as cell-based. Also noted: scale not given: the % may be the effect or the level left.

Series [11] has as its system HeLa. As to the kind of experiment: Induction of EGFP fused Htt Q23 mutant exon 1 (unknown origin) degradation expressed in human HeLa cells assessed as HSP70/CHIP recruitment based proteosome mediated mHtt exon 1-Q23 degradation at 1 to 10 uM measured after 48 hrs by Western blot analysis. It is filed as cell-based. Conditions: dose 1-10 µM.
A short description of series [12]: Ratio of drug concentration in brain to plasma in C57BL/6J mouse at 0.1 to 0.7 mg/kg, iv measured after 4 hrs. It is filed as ADME, organism-based. Conditions: brain and plasma, dose 0.1-0.7 mg/kg.
The subject of series [13] is HeLa. As to the kind of experiment: Induction of EGFP fused Htt Q145 mutant exon 1 (unknown origin) degradation expressed in human HeLa cells assessed as HSP70/CHIP recruitment based proteosome mediated mHtt exon 1-Q145 degradation at 10 uM measured after 24 hrs by Western blot analysis. Type of series: cell-based.

Calls of active or inactive are those of the source. The rule behind the calls is not given here.

On to `CCCCCC(CCCCC)OCCOCCOCCOCCOc1ccc2nc(/N=N/c3ccc(N(C)C)cc3)sc2c1`, for which, in the series with HeLa [1], the result was Active. Further, the Ratio in series [2] (caco-2, 10 µM) was found to be 0.241. Besides, the Papp in [3] (caco-2, 10 µM) is 2.46 10^-6 cm/s; in [4] (caco-2, 10 µM), 0.241 10^-6 cm/s.

The term efflux ratio denotes the permeability from basolateral to apical divided by that in the opposite direction, in the common usage. The term Papp A→B denotes the apparent permeability from the apical to the basolateral side of a cell layer. Usually Papp B→A stands for the apparent permeability from the basolateral to the apical side of a cell layer. For `CN(C)c1ccc(/N=N/c2nc3ccc(OCCOCCOCCOCCOC45CC6CC(CC(C6)C4)C5)cc3s2)cc1`, the outcome in the series on HeLa [5], with HeLa [7] and in the series on HeLa [11] was inactive. Moreover, the efflux ratio at 10 µM in [2] is 1.2. Moreover, the figures for the Activity result (in series [6]; in the series with HeLa [10]) were “Dose-Dependent Effect” and 60%, respectively. For the same compound, the apical-to-basolateral permeability (Papp A→B) at 10 µM in [3] came to 0.098 ×10⁻⁶ cm/s. The result with HeLa [8] and with HeLa [9] was Active. The Papp B→A at 10 µM in series [4] turned out to be 0.118 ×10⁻⁶ cm/s.

As for `CN(C)c1ccc(/N=N/c2nc3ccc(OCCOCCOCCOCCOC(c4ccccc4)c4ccccc4)cc3s2)cc1`, the outcome in the series on HeLa [1] was Active.

As a reminder, the Kp is the ratio of the level in a tissue or fluid to that in plasma or blood. For the compound `CN(C)c1ccc(/N=N/c2nc3ccc(OCCOCCOCCOCCOC45CC6CC7C8CC(CC74)CC5C8C6)cc3s2)cc1`, the efflux ratio at 10 µM in [2] amounted to 0.235. Moreover, the Papp A→B at 10 µM in series [3] came to 5.32 ×10⁻⁶ cm/s. The Activity in the series on HeLa [7] is 60%. Also, in series [4], the Papp B→A at 10 µM came to 1.25 ×10⁻⁶ cm/s. In series [12], the concentration ratio (Kp) at 4 h was 0.13.

`CC(C)C[C@H](NC(=O)[C@@H](O)[C@H](N)Cc1ccccc1)C(=O)NCCOCCOCCOc1ccc2nc(/N=N/c3ccc(N(C)C)cc3)sc2c1`: the efflux ratio at 10 µM in [2] turned out to be 0.19. The Papp A→B at 10 µM in series [3] was determined as 1.03 ×10⁻⁶ cm/s. Also, the apparent permeability from basolateral to apical (Papp B→A) at 10 µM in series [4] is 0.196 ×10⁻⁶ cm/s.

On to `CN(C)c1ccc(/N=N/c2nc3ccc(O)cc3s2)cc1`, for which, in the series on HeLa [13], the outcome was inactive.

For `CN(C)c1ccc(/N=N/c2nc3ccc(OCCOCCOC45CC6CC(CC(C6)C4)C5)cc3s2)cc1`, the Papp B→A at 10 µM in series [4] is 4.71 ×10⁻⁶ cm/s. In addition, the Kp at 4 h in [12] was 4.89.

Take `CN(C)c1ccc(/N=N/c2nc3ccc(OCCOCCOCCOCCOc4cccc5ccccc45)cc3s2)cc1`: in the series with HeLa [1], the result was Active.

As to `OCCOCCOCCOCCOC12CC3CC(CC(C3)C1)C2`, the outcome in the series with HeLa [13] was inactive.

These data come from ChEMBL document CHEMBL5038672, “Conversion of a PROTAC Mutant Huntingtin Degrader into Small-Molecule Hydrophobic Tags Focusing on Drug-like Properties” (ACS Med Chem Lett, 2022).
